Earlier results as cited in patent US20070185063A1, “Seven-membered ring nucleosides” (Idenix Pharmaceuticals, Inc., priority 2005, published 2007).
One block for each compound: values may come before it.

How the values were obtained:
[1] = in vivo
HCV = conditions: ribavirin alone
[2] = tested on: human granulocyte-macrophage colony-forming (CFU-GM) activity; conditions: in vitro, bone marrow cells from healthy volunteers; clinically relevant concentrations
[3] = tested on: erythroid burst-forming (BFU-E) activity; conditions: in vitro, bone marrow cells from healthy volunteers; clinically relevant concentrations

SMILES: O=c1[nH]c(=O)n([C@@H]2O[C@H](CO)[C@@H](O)[C@@H]2F)cc1I [fialuridine, 1,-2′-deoxy-2′-fluoro-1-β-D-arabinofuranosyl-5-iodo-uracil]
- clinical adverse events due to direct mitochondrial toxicity [1]: caused hepatic failure, pancreatitis, neuropathy, myopathy and lactic acidosis

SMILES: NC(=O)c1ncn([C@@H]2O[C@H](CO)[C@@H](O)[C@H]2O)n1 [Ribavirin, 1-β-D-ribofuranosyl-1-1,2,4-triazole-3-carboxamide]
- effect on serum levels of HCV-RNA (HCV): does not lower serum levels of HCV-RNA
- patients in whom serum amino transferase levels are reduced to normal (HCV): 40%

- concentration that directly inhibits CFU-GM activity [2]: 1000 to 2000 nM
- concentration that directly inhibits BFU-E activity [3]: 1000 to 2000 nM
SMILES: Cc1cn([C@H]2C[C@H](N=[N+]=[N-])[C@@H](CO)O2)c(=O)[nH]c1=O [ZDV, zidovudine]
